This is an account of results in article PMC4172534 (Neuroscience, 2014).

Assay [1] deals with Homomeric GluK1 or GluK2 receptors. As to the kind of experiment: Whole-cell patch-clamp current response, homomeric GluK1 or GluK2 receptors. The assay is classed as cell-based, rat. As to conditions: read-out: EC50 range; summary in discussion of own homomer values.
For assay [2], the system named is GluK3/K5 heteromer. The following applies: read-out: glutamate EC50; ref Perrais et al, 2009a; cited from earlier work.
For assay [3], the system named is GluK3 homomers. The following applies: read-out: glutamate EC50; ref Perrais et al, 2009a; cited from earlier work.
For assay [4], the target named is GluK2 receptors. The following applies: literature range; ref Jones et al., 1997; Alt et al., 2004; Jane et al., 2009; cited from earlier work.
Assay [5] addresses GluK2/K5 receptors. The following applies: literature range; ref Jones et al., 1997; Alt et al., 2004; Jane et al., 2009; cited from earlier work.

In the case of `N[C@@H](CCC(=O)O)C(=O)O` [glutamate], the EC50 (in general, the concentration needed to bring the measured effect to its halfway point) was 100 to 200 µM in assay [1], 6000 µM in assay [2] and 10000 µM in assay [3].

For `C=C(C)[C@H]1CN[C@H](C(=O)O)[C@H]1CC(=O)O` [kainate], the EC50 in assay [4] and in assay [5] was 1 to 5 µM each time.
